Test results published in patent publication US20230263808A1 (UNIVERSITY OF FLORIDA RESEARCH FOUNDATION, INCORPORATED, priority 2020, published 2023).

Tests used:
[1] = Lactate-tolerance test (rate of glucose production); type: in vivo, C57BL/6 male mice; details: after overnight fast; 10 mg/kg Dex or SR16024, 50 mg/kg SR11466
Description: A) The effects of all tested compounds on IL-1β-induced IL-6 production (x-axes) versus GR interaction with the indicated peptides. B-C) The effects of all tested compounds on the indicated GC-regulated phenotypes (x-axes) versus GR interaction with the CHD9_1023 and CENPR_1 peptides (y-axes). D-F) COC plots. Each point represents the Pearson correlation coefficient, r, between a distinct gene expression or GR-peptide interaction assay with assays indicated on the x and y axes. G) The effects of all tested compounds on IL-1β-induced IL-6 production (y-axes) versus insulin-induced protein synthesis. […] IL-β-induced IL-6 production by A549 cells treated with the indicated compounds was compared by AlphaLISA. […] Mice in panel K were subjected to a lactate-tolerance test (LTT).
We were also interested in whether the compounds would show dissociation between Glut4 translocation in skeletal muscle and gluconeogenesis in the liver, but enhanced glucose production is typically studied after weeks or months of GC treatment. However, we reasoned that an overnight fast should enable detection of effects after a single dose. […] Thus, profiling effects of GCs in the physiological context of nutrient deprivation allowed the discovery of two new types of glucocorticoids with improved profiles in skeletal muscle.

L6 myotubes = test: Glut4 translocation to the myotube surface (In-Cell Western); type: cell-based, rat
Experimental: A) C2C12 myotubes were assayed for chymotrypsin-like proteasomal activity. […] C) Quantitation of the ICW in panel B. D) ICW for surface expression of Glut4 on L6 myotubes. E) ICW for insulin-induced incorporation of puromycin into C2C12 myotube surface proteins. F-G) High-content imaging and analysis of C2C12 myoblasts stained with a Mitotracker dye. H) Assay reproducibility from screening 22 compounds on two separate occasions. The Pearson correlation coefficient, r, and its associated p-value is indicated.
C2C12 myocytes were used in all assays, except in the Glut4 translocation assay where L6 rat myocytes were used. ICW, In-Cell Western. Also see Methods.
Physiologically, the effects of GCs on protein balance and Glut4 translocation vary in vivo depending upon the stressor. For example, GCs mediate atrophy in response to fasting but not exercise. […] To assess protein degradation, we measured chymotrypsin-like proteasomal activity (FIG. 2, A). The activating phosphorylation of AKT at Thr308 (pAKT) was measured using a LI-COR In-Cell Western assay (FIG. 2, B and C). The rate-limiting step in insulin-mediated glucose uptake is the translocation of the glucose transporter, Glut4, to the surface membrane, which we also measured by In-Cell Western without permeabilizing the myotubes (FIG. 2, D). Surface Sensing of Translation (SUnSET) (Schmidt et al., Nat Methods 6, 275-277, 2009) assay was used to measure protein synthesis by In-Cell Western, following treatment of myotubes with a low dose of puromycin, which incorporates into translating proteins, but at a low enough level to provide a readout for global protein synthesis (FIG. 2, E). Lastly, we developed a high-content imaging assay in myoblasts stained with a MitoTracker dye, so that individual mitochondrial networks could be visualized with adequate resolution to quantitate area, segmentation, branching, and fluorescence intensity which is a measure of mitochondrial membrane potential (ψm).

androgen receptor (AR) = target: T1, androgen receptor (AR) (Homo sapiens, UniProt P10275); test: AR-luciferase assay in 293T cells; type: cell-based
T1 construct: expressed in transfected cells; host or cells: 293T
T1 sequence (P10275 1-920): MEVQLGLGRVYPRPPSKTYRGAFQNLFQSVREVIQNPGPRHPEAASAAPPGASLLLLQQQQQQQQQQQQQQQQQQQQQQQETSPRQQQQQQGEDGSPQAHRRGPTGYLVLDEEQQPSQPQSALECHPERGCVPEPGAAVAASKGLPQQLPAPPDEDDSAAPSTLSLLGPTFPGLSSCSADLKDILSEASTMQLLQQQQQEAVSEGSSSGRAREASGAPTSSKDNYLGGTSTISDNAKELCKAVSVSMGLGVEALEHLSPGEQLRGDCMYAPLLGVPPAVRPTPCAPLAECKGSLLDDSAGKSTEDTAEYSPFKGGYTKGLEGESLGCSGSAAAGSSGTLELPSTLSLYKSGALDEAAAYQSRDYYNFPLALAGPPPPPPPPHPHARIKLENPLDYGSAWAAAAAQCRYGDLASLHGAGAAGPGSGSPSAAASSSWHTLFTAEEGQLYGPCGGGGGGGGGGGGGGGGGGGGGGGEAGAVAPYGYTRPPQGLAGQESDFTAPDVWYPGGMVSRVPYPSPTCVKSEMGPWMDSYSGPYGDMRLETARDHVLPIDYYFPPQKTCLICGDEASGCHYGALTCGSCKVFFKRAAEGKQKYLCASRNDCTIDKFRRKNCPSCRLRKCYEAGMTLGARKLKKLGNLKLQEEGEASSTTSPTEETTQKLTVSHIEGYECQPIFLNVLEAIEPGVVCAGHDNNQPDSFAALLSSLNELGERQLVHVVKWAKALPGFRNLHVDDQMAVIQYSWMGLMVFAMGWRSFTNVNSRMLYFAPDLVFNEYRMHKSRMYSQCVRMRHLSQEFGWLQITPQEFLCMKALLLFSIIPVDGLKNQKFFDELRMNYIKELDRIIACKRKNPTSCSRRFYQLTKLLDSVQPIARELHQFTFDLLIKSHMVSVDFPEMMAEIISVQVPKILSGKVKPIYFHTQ
Experimental: For native gene expression, C2C12 myotubes were treated compounds for 24 h. For MMTV-Luc assay, steroid-deprived 293T cells were co-transfected with a GR expression plasmid and an MMTV-driven luciferase reporter plasmid. The next day, cells were treated with compounds for 24 hrs. Each point represents the average of triplicate biological measurements for a separate compound. B) AR Luc assay development. Steroid-deprived 293T cells were transfected with AR expression plasmid and an ARR3-tk-driven luciferase reporter. The next day cells were treated with increasing doses of the indicated compounds. Data shown are mean+SD of triplicate measurements. C) AR-Luc assay identified 5 GCs with some AR activity.
For inclusion in the statistical analyses, assays were required to show high reproducibility, with a Pearson correlation >0.8 between different experiments (FIG. 2, H; FIG. 9, A). […] We also analyzed the effects of the compounds on expression of Fkbp5, Pdk4, and Klf15 mRNAs in C2C12 myotubes, and MMTV-luciferase and androgen receptor (AR) driven-luciferase activity in 293T cells. […] We also analyzed the effects of compounds on nuclear translocation of GR using a quantitative HTS approach (Htun et al., Proc. Natl. Acad. Sci. USA 93, 4845-4850, 1996). […]

C=CCOC1CC2(C)C(CCC2(O)C#CC)C2CCc3cc(C(=O)Nc4cccnc4C)ccc3C12 (stereo not drawn) [SR11466]
rate of glucose production in lactate tolerance test [1]: increased the rate of glucose production

CC#CC1(O)CCC2C3CCc4cc(C(=O)Nc5cccnc5C)ccc4C3C(OCc3ccccc3Cl)CC21C (stereo not drawn) [SR16024]
effect on Glut4 translocation (L6 myotubes): no inhibition

CC#CC1(O)CCC2C3CCc4cc(C(=O)Nc5cccnc5C)ccc4C3C(OCc3ccc(Cl)cc3)CC21C (stereo not drawn) [SR16025]
AR activity (androgen receptor (AR)): weak AR antagonist
